From patent publication US7691842B2, “Tricyclic 6-alkylidene-penems as β-lactamase inhibitors” (Wyeth LLC, priority 2002, dated 2010)
Structures can show the parent of a compound that is named as a salt. Where two headings read alike, the source gives them in different places.

Assays:
[1] = biological target: class A β-lactamase TEM-1 (Escherichia coli, UniProt P62593); assay: β-Lactamase inhibition, IC50 determination (nitrocefin, spectrophotometric); format: biochemical, E. Coli
Method: (§1) IC50 Determination for the Penem Inhibitor
(§2) β-Lactamase inhibitory activity of the penem inhibitors was determined spectrophotometrically as described by Bush et al., [Bush, K., Macalintal, C., Rasmussen, B. A., Lee, V. and Yang, Y. Antimicrobial Agents and Chemotherapy 1993, 37, 851]. Homogeneously purified class A β-lactamases TEM-1 from E. Coli and Imi-1 from Enterobacter cloacae, class B enzyme CcrA from Bacteroides fragilis and class C enzyme AmpC from Enterobacter cloaca were employed in the assay. The enzyme concentrations for TEM-1, Imi-1, CcrA and AmpC were 4.3, 7.1, 1.2 and 2.1 nM, respectively. A wide range of inhibitor concentrations were prepared in 50 mM PO4, pH 7.0 to include the possible IC50 values. The substrate used to initiate the enzyme reaction was nitrocefin at 50 μg/ml in the same buffer as the inhibitor. Initially the enzyme and inhibitor (20 μl each) were preincubated for 10 minutes at 25° C. prior to the addition of 160 μl volume of nitrocefin. Initial rates of hydrolysis were monitored for 5 minutes at 495 nm using a Molecular Devices Spectra Max 250 with kinetic protocol of SoftMax Program. Readings from the Spectra Max 250 were exported and transferred to Microsoft Excel. The percent of inhibition of each inhibitor concentration was calculated based on the control enzyme activity. The inhibitor concentration that caused a 50% reduction in the enzymatic activity (IC50) was determined graphically.

[2] = biological target: class A β-lactamase Imi-1 (Enterobacter cloacae, UniProt Q46991); assay: as above; format: biochemical
class A β-lactamase Imi-1, sequence (Q46991 entry or part of it): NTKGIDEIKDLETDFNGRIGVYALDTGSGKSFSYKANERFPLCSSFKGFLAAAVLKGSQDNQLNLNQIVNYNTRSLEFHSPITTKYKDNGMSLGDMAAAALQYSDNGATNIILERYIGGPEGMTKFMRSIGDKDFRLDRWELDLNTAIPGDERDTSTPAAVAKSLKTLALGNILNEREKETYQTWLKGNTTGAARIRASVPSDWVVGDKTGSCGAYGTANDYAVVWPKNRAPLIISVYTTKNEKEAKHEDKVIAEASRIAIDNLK
Method: as §1, §2

[3] = biological target: class B enzyme CcrA (Bacteroides fragilis, UniProt P25910); assay: as above; format: biochemical; conditions: read-out: IC50 (nM) Class B Ccr
class B enzyme CcrA, sequence (P25910 19-249): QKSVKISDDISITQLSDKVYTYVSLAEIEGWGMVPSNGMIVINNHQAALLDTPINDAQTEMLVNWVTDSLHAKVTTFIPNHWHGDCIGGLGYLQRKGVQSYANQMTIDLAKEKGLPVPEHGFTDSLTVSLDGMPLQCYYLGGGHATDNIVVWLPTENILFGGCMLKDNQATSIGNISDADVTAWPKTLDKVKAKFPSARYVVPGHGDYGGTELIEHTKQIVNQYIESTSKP
Method: as §1, §2

[4] = biological target: class C enzyme AmpC (Enterobacter cloacae, UniProt P05364); assay: biochemical; design: species or system Enterobacter cloaca
class C enzyme AmpC, sequence (P05364 21-381): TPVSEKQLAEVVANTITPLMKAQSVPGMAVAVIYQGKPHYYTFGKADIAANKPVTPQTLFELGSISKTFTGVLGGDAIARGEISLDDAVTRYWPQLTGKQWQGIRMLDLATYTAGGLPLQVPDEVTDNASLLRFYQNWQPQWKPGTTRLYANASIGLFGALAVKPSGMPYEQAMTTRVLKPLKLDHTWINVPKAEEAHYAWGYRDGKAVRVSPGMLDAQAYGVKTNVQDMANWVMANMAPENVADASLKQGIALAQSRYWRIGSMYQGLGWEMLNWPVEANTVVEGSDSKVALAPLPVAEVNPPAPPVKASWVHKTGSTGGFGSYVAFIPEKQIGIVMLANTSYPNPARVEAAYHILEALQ
Method: as §1, §2

[5] = system: Clinical isolates that have been adapted to cause infection in mice; assay: In vivo antibacterial protection (7 day survival of infected mice, ED50); design: species or system mice strain CD-1; conditions: Mus musculus, 168 h
From the text: In Vivo Antibacterial Protection
Female mice strain CD-1, approximately 18-22 grams, were received from Charles River Laboratories and quarantined 7 days prior to use. In addition, mice may be rendered neutropenic using cytoxan for particular studies.
Clinical isolates that have been adapted to cause infection in mice, are used in the experiment, including infections with strains of E. coli, K. pneumoniae, M. morganii, E. cloacae, S. marcescens, C. freundii, staphylococci, streptococci, P. aeruginosa and N. gonorrhoeae.
Mice are challenged by injecting 0.5 ml intraperitoneally or 0.05 ml intranasally of a predetermined bacterial inoculum suspended in broth, saline or hog gastric mucin (supplemented with dried bovine hemoglobin for N. gonorrhoeae). […] Antibacterial doses (dose concentration prepared by two fold serial dilutions of the antibiotic) are dissolved or suspended in 0.2% aqueous agar or methocel, phosphate buffered saline or an adjuvant are administered orally, subcutaneously or intravenously in the following manner: • a) Orally or subcutaneously: Dose volume of 0.5 ml administered ½ hr after infection. A second dose may be administered 3 hr. after infection for treatment of infections with more virulent organisms. • b) Intravenously: Dose volume of 0.2 ml, administered ½ hr. after infection. For the treatment of infections with more virulent organisms, more doses, up to 48 hr may be administered. (Intravenous dosing will not exceed 3 doses/24 hr period.) • c) Oral pretreatment: Under special circumstances, the pH of the stomach needs to be adjusted in order to increase the gastric stability of the antibiotic. For this purpose, 0.5 ml of phosphate buffered saline (pH7.8, 0.06M) (or specific approved adjuvant) is administered orally ½ hr after infection, followed 5 minutes later by 0.5 ml of antibiotic (also orally) contained in phosphate buffered saline (pH7.8, 0.06M). Animal Species
A detailed explanation as to the number of animals needed for the determination of in vivo efficacy follows: • A) Novel antibiotics are tested at 5 different dose levels with 5 mice per dose level at each of three routes of administration (oral, subcutaneous and intravenous). […] This would require 25 mice/route with 3 routes/antibiotic or 75 mice per novel compound tested. One to two novel antibiotics will be tested per experiment (75-150 mice) • B) The effectiveness of the new compound must be compared to that of a standard, or antibiotic of known effectiveness. Known or previously tested antibiotics are tested at 5 dose levels with 5 mice per dose level by a single route of administration, for a total of 25 mice/antibiotic. Usually 3-6 antibiotics will be tested per experiment. (75-150 mice). • C) Untreated controls—In each of the above tests, untreated animals are infected with 3 different concentrations of bacterial inoculum with 10 mice per concentration (30 mice total in each and every test). These untreated controls are used to determine and maintain the infection level between 10-100 LD50s as required for test to test comparison and validity. Determination of Protective Effects of Antibacterial Agents:
The protective effects of the antibacterial agent(s) are measured by the survival of the infected untreated as compared to the treated animals. For this determination, animals are observed for 7 days after treatment. A census of survivors is taken twice daily and at that time dead as well as moribund animals are removed. The 7 day survival ratio from three separate tests are pooled for estimation of median effective dose (ED50) by computerized program for probit analysis (Cleeland, R. and E. Squires. 1991. Evaluation of New Antimicrobials in Vitro and in Experimental Animal Infections. In Antibiotics in Laboratory Medicine”, 3rd. ed., edited by Victor Lorian. Willams and Wilkins Baltimore, Md. pp. 752-783). […]

[6] = system: E. Cloacae GC1477 (Ampc); assay: Antimicrobial susceptibility testing, microbroth dilution MIC of piperacillin + inhibitor; format: cell-based; conditions: piperacillin combined with constant 4 μg/ml inhibitor; Inc: 35° C. for 18 hours
Method: (§3) Antimicrobial susceptibility testing. The in vitro activities of the antibiotics were determined by the microbroth dilution method as recommended by the National Committee for Clinical Laboratory Standards (NCCLS). (NCCLS. 2000. Methods for Dilution Antimicrobial Susceptibility Tests for Bacteria That Grow Aerobically; Approved Standards: M7-A5, vol. 19. National Committee for Clinical Laboratory Standards, Villanova, Pa.). Mueller-Hinton it broth (MHBII)(BBL Cockeysville, Md.), was used for the testing procedure. Microtiter plates containing 50 μl per well of two-fold serial dilutions of piperacillin combined with a constant amount (4 μg/ml) of a B-lactamase inhibitor (final concentration) were inoculated with 50 μl of inoculum to yield the appropriate density (10^5 CFU/ml) in 100 μl. The plates were incubated for 18-22 hours at 35° C. in ambient air.

[7] = system: E. Coli GC2203; assay: as above; format: cell-based; conditions: piperacillin combined with constant 4 μg/ml inhibitor; Inc: 35° C. for 18 hours
Method: as §3

[8] = system: E. Coli GC2844; assay: as above; format: cell-based; conditions: piperacillin combined with constant 4 μg/ml inhibitor; Inc: 35° C. for 18 hours
Method: as §3

[9] = system: E. Coli GC2847 (TEM-1); assay: as above; format: cell-based; conditions: piperacillin combined with constant 4 μg/ml inhibitor; Inc: 35° C. for 18 hours
Method: as §3

[10] = system: E. Coli GC2894 (Ampc); assay: as above; format: cell-based; conditions: piperacillin combined with constant 4 μg/ml inhibitor; Inc: 35° C. for 18 hours
Method: as §3

[11] = system: E. Coli GC2920 (IRT-2); assay: as above; format: cell-based; conditions: piperacillin combined with constant 4 μg/ml inhibitor; Inc: 35° C. for 18 hours
Method: as §3

[12] = system: P. aeruginos GC1764 (Ampc); assay: as above; format: cell-based; conditions: piperacillin combined with constant 4 μg/ml inhibitor; Inc: 35° C. for 18 hours
Method: as §3

[13] = system: S. Marcescens GC1781 Sme-1 + Ampc; assay: as above; format: cell-based; conditions: piperacillin combined with constant 4 μg/ml inhibitor; Inc: 35° C. for 18 hours
Method: as §3

[14] = system: S. aureus GC2216; assay: as above; format: cell-based; conditions: piperacillin combined with constant 4 μg/ml inhibitor; Inc: 35° C. for 18 hours
Method: as §3

[15] = enzyme 1.2 nM, 10 min preincubation at 25° C., nitrocefin 50 μg/ml, 50 mM PO4, pH 7.0
[16] = Ratio of Piperacillin Inhibitor 4:1, read-out: ED50
[17] = enzyme 4.3 nM, 10 min preincubation at 25° C., nitrocefin 50 μg/ml, 50 mM PO4, pH 7.0, read-out: IC50 (nM) Class A TEM-1
[18] = enzyme 7.1 nM, 10 min preincubation at 25° C., nitrocefin 50 μg/ml, 50 mM PO4, pH 7.0, read-out: IC50 (nM) Class A Imi
[19] = enzyme 2.1 nM, 10 min preincubation at 25° C., nitrocefin 50 μg/ml, 50 mM PO4, pH 7.0, read-out: IC50 (nM) Class C AmpC
[20] = Ratio of Piperacillin Inhibitor 2:1, read-out: ED50

class A β-lactamase TEM-1, sequence (P62593 24-286 limits assumed): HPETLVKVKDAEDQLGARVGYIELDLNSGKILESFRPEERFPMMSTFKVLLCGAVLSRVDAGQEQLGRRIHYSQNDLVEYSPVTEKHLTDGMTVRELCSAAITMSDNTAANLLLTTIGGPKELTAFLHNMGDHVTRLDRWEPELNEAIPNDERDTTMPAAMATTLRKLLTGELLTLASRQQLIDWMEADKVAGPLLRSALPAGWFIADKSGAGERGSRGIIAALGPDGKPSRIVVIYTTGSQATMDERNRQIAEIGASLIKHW

O=C(O)C1=CS[C@@H]2/C(=C\c3cn4c(n3)-c3ccccc3C4)C(=O)N12 [Example 12, (5R), (6Z)-6-(5H-Imidazo[2,1-a]isoindol-2-ylmethylene)-7-oxo-4-thia-1-aza-bicyclo[3.2.0]hept-2-ene-2-carboxylic acid sodium salt]
IC50 [1]: 2.6 nM | IC50 [2]: 6.4 nM | IC50 [3, 15]: 42 nM | IC50 [4]: 28 nM | ED50 [5, 16]: 50 mg/kg

O=C(O)C1=CS[C@@H]2/C(=C\c3cn4c(n3)nc3n4CCCC3)C(=O)N12 [Example 8, (5R), (6Z)-6-(4,5,6,7-tetrahydro-1,3a,3b,8-tetraaza-cyclopenta[a]indene-2-ylmethylene)-7-oxo-4-thia-1-aza-bicyclo[3.2.0]hept-2-ene-2-carboxylic acid sodium salt]
IC50 [1]: 2.4 nM | IC50 [2]: 15 nM | IC50 [3, 15]: 450 nM | IC50 [4]: 1.4 nM | ED50 [5, 16]: 16 to 64 mg/kg

O=C([O-])C1=CS[C@@H]2/C(=C\c3cc4oc5c(n4n3)CCCC5)C(=O)N12.[Na+] [Example 32, (5R,6Z)-7-oxo-6-(5,6,7,8-tetrahydropyrazolo[5,1-b][1,3]benzoxazol-2-ylmethylene)-4-thia-1-1-azabicyclo[3.2.0]hept-2-ene-2-carboxylic acid, sodium salt]
IC50 [1, 17]: 2.6 nM | IC50 [2, 18]: 110 nM | IC50 [3, 15]: 180 nM | IC50 [4, 19]: 5.6 nM | Minimal Inhibitory Concentration E. Cloacae GC1477 (Ampc) [6]: 64 µg/mL | Minimal Inhibitory Concentration E. Coli GC2203 [7]: 2 µg/mL | Minimal Inhibitory Concentration E. Coli GC2844 [8]: 2 µg/mL | Minimal Inhibitory Concentration E. Coli GC2847 (TEM-1) [9]: 16 µg/mL | Minimal Inhibitory Concentration E. Coli GC2894 (Ampc) [10]: 32 µg/mL | Minimal Inhibitory Concentration E. Coli GC2920 (IRT-2) [11]: 4 µg/mL | Minimal Inhibitory Concentration P. aeruginos GC1764 (Ampc) [12]: 64 µg/mL | Minimal Inhibitory Concentration S. Marcescens GC1781 Sme-1 + Ampc [13]: 2 µg/mL | Minimal Inhibitory Concentration S. aureus GC2216 [14]: .05 µg/mL

O=C([O-])C1=CS[C@@H]2C(=Cc3cc4n(n3)Cc3ccccc3OC4)C(=O)N12.[Na+] [Example 11, (5R,6E&Z)-7-oxo-6-(4H,10H-pyrazolo[5,1-c][1,4]-benzoxazepin-2-ylmethylene)-4-thia-1-azabicyclo[3.2.0]hept-2-ene-2-carboxylic acid, sodium salt]
IC50 [1, 17]: 1.4 nM | IC50 [2, 18]: 78 nM | IC50 [3, 15]: 62 nM | IC50 [4, 19]: 3.6 nM | Minimal Inhibitory Concentration E. Cloacae GC1477 (Ampc) [6]: 32 µg/mL | Minimal Inhibitory Concentration E. Coli GC2203 [7]: 1 µg/mL | Minimal Inhibitory Concentration E. Coli GC2844 [8]: 1 µg/mL | Minimal Inhibitory Concentration E. Coli GC2847 (TEM-1) [9]: 8 µg/mL | Minimal Inhibitory Concentration E. Coli GC2894 (Ampc) [10]: 4 µg/mL | Minimal Inhibitory Concentration E. Coli GC2920 (IRT-2) [11]: 1 µg/mL | Minimal Inhibitory Concentration P. aeruginos GC1764 (Ampc) [12]: 16 µg/mL | Minimal Inhibitory Concentration S. Marcescens GC1781 Sme-1 + Ampc [13]: 1 µg/mL | Minimal Inhibitory Concentration S. aureus GC2216 [14]: <0.06 µg/mL

COc1ccc2c(c1)sc1nc(/C=C3/C(=O)N4C(C(=O)O)=CS[C@H]34)cn12 [Example 2]
IC50 [1, 17]: 18 nM | IC50 [2]: 180 nM | IC50 [3, 15]: 250 nM | IC50 [4]: 2.4 nM | ED50 [5, 20]: > 64 mg/kg

CCOc1nc2nc(C=C3C(=O)N4C(C(=O)O)=CSC34)cn2c2c1CCC2 (stereo not shown) [Example 10, 6-(5-ethoxy-7,8-dihydro-6H-3,4,8b-triaza-as-indacen-2-ylmethylene)-7-oxo-4-thia-1-aza-bicyclo[3.2.0]hept-2-ene-2-carboxylic acid]
IC50 [1]: 48 nM | IC50 [2]: 35 nM | IC50 [3, 15]: 140 nM | IC50 [4]: 5.8 nM | ED50 [5, 16]: 55.6 mg/kg

O=C(O)C1=CS[C@@H]2/C(=C\c3cn4c(ccc5ccccc54)n3)C(=O)N12 [Example 4, (5R),(6Z)-6-Imidazo[1,2-a]quinolin-2-ylmethylene-7-oxo-4-thia-1-azabicyclo[3.2.0]hept-2-ene-2-carboxylic acid]
IC50 [1]: 6 nM | IC50 [2]: 90 nM | IC50 [3, 15]: 900 nM | IC50 [4]: 2.1 nM | ED50 [5, 20]: 32 to 64 mg/kg

O=C(O)C1=CS[C@@H]2/C(=C\c3cn4c(n3)sc3cc(F)ccc34)C(=O)N12 [Example 14]
IC50 [1]: 8.1 nM | IC50 [2]: 270 nM | IC50 ([3]; pH 7): 370 nM | IC50 [4]: 2.4 nM | ED50 ([5]; Ratio of Piperacillin Inhibitor not given, read-out: ED50): > 64 mg/kg

O=C(O)C1=CS[C@@H]2/C(=C\c3cn4c(n3)sc3ccccc34)C(=O)N12 [Example 1, (5R,6Z)-6-(Imidazo[2,1-b][1,3]benzothiazol-2-ylmethylene)-7-oxo-4-thia-1-azabicyclo[3.2.0]hept-2-ene-2-carboxylic acid]
IC50 [1, 17]: 10 nM | IC50 [2]: 160 nM | IC50 [3, 15]: 350 nM | IC50 [4]: 1.4 nM | ED50 [5, 20]: 32 to 64 mg/kg
